Measurements published in patent publication US10206944B2, “Chondroitin for use in medicine” (ALTERGON S.A., priority 2012, dated 2019).

What was measured:
[1] = test system: Enterococcus faecalis strain ATCC 19433; assay: Inhibition of bacterial growth on plate, E. faecalis; type: cell-based
Procedure: The antibacterial activity of chondroitin (C) and chondroitin sulphate (CS) on the growth of Escherichia coli ATCC 25922 and Enterococcus faecalis ATCC 19433 on a solid medium in vitro was examined. The concentrations explored ranged from 40 μg/mL to 40 mg/mL of C or CS as final concentrations in the medium. Brain-heart infusion (Oxoid) was used as culture medium for E. coli ATCC 25922, and M17 (Oxoid) for E. faecalis ATCC 19433; both media were adjusted to the same pH and the same osmolarity before being solidified by adding agar and cooled. 100 μL of a bacterial suspension containing 10^2, 10^3 or 10^4 bacteria/mL was plated as inoculum. […] The number of colonies was then counted on control plates in the absence of the substances under study and on plates at the various concentrations of C and CS. The data from the experiments for the two micro-organisms, conducted in triplicate for each of the conditions, are shown in tables 7 and 8.

mini-pig dorsal wounds = assay: Wound repair in the mini-pig, topical treatment; type: in vivo; design: key to d) Histological evaluation of biopsies after 4 weeks / e) Histological evaluation of biopsies after 6 weeks: collagen organisation 1-3; 3 = best healing, 1 = parallel bundles; settings: for a) Evaluation of wound quality after 4 weeks: 2.5 mL twice a day, 5 excellent; for a) Evaluation of wound quality after 4 weeks / b) Evaluation of wound quality after 6 weeks: 5-point scale; for d) Histological evaluation of biopsies after 4 weeks / e) Histological evaluation of biopsies after 6 weeks: collagen organisation, 3-point scale; for c) Histopathological evaluation after 6 weeks: scale of 1 to 3, 3 optimum healing
Description: The mini-pig (an animal weighing 25-28 Kg), a model whose validity for wound-repair studies is widely recognised, was used as experimental model to evaluate the ability of chondroitin to accelerate the repair process of damaged skin tissue. Operating under general anaesthetic from the back of the animals, the hair was shaved and the shaven area was washed thoroughly with a 10% solution of iodine-polyvinylpyrrolidone complex and then with isopropyl alcohol. 12 elliptical wounds, six on each side, 20 mm long and 6 mm wide, were made on the shaven, disinfected backs of the animals. The wounds penetrated as far as the subcutaneous fat, about 4 cm from the median line of the back, with the longer side of the wound parallel to the spinal line. The incisions were then sewn with two stitches to close the dermal plane. The superficial stitches were removed after about 7 days. The wounds were covered with a non-adhesive dressing secured with sticking plaster, and the body of the animals was protected with an elastic bandage. Eight animals were selected and divided into two groups of 4, treated topically with chondroitin (first group) or chondroitin sulphate (second group), as described in the protocol shown in Table 11. Starting from the head of the animal, the first two wounds on both sides were treated with the carrier alone, consisting of 2.5 mL of saline, the second two on both sides were treated with 2.5 mL of a 30 mg/mL solution of chondroitin in saline (first group) or with 2.5 mL of a 30 mg/mL solution of chondroitin sulphate in saline (second group), and the third two on both sides were treated with 2.5 mL of a 60 mg/mL solution of chondroitin in saline (first group) or 2.5 mL of a 60 mg/mL solution of chondroitin sulphate in saline (second group). The treatment was performed by slowly dripping the solution into the wound twice a day and dabbing with a gauze dressing, which was then used to cover the wound so that the active ingredient remained in situ for longer. The study continued for 6 weeks, after which the animals were euthanized. A biopsy of about 4 mm was taken after 4 weeks, while the entire areas of the 12 dorsal wounds were removed from the euthanized animals for histological tests. The following evaluations were performed on the treated animals:
a) an evaluation after 4 and 6 weeks by 4 dermatologists who independently assessed the quality of the wound (colour, texture, edges, distortion) and the appearance of the surrounding tissue on a 5-point scale;
b) a pathological evaluation on a scale of 1 to 3 conducted by two veterinary surgeons on the tissue removed after the animals were euthanized, to evaluate the presence of abnormal histopathological situations (quantity of granulation tissue and inflammatory response, with a score from 3 for optimum healing to 1 for ongoing inflammatory symptoms and abundant granulation tissue);
c) a histological analysis of the 4-week biopsies and the tissue removed after the animals were euthanized, conducted by two histologists operating independently, who evaluated the organisation of the collagen on a 3-point scale. An organisation of the collagen fibres similar to the normal model, but smaller than normal dermis (the best healing), scored 3 points, an intermediate arrangement of the fibre weave scored 2 points, and several fibres arranged in parallel bundles or on a plane scored 1 point.

[2] = 40 μg/mL, 10 bacteria inoculated
[3] = 40 μg/mL, 100 bacteria inoculated
[4] = 40 μg/mL, 1000 bacteria inoculated
[5] = 400 μg/mL, 10 bacteria inoculated
[6] = 400 μg/mL, 100 bacteria inoculated
[7] = 400 μg/mL, 1000 bacteria inoculated
[8] = 4 mg/mL, 10 bacteria inoculated
[9] = 4 mg/mL, 100 bacteria inoculated
[10] = 4 mg/mL, 1000 bacteria inoculated
[11] = 40 mg/mL (maximum concentration)
[12] = 40 mg/mL, 10 bacteria inoculated
[13] = 40 mg/mL, 100 bacteria inoculated
[14] = 40 mg/mL, 1000 bacteria inoculated

chondroitin
Inhibition factor ([1]; 40 μg/mL): 1.2
Qualitative valuation of inhibition ([1]; 40 μg/mL): mild
CFU after 36 h [1, 2]: 8 ± 2 CFU
CFU after 36 h [1, 3]: 82 ± 5 CFU
CFU after 36 h [1, 4]: 870 ± 70 CFU
Inhibition factor ([1]; 400 μg/mL): 2
Qualitative valuation of inhibition ([1]; 400 μg/mL): significant
CFU after 36 h [1, 5]: 5 ± 1 CFU
CFU after 36 h [1, 6]: 55 ± 6 CFU
CFU after 36 h [1, 7]: 480 ± 30 CFU
Inhibition factor ([1]; 4 mg/mL): 6.1
Qualitative valuation of inhibition ([1]; 4 mg/mL): significant
CFU after 36 h [1, 8]: 0 CFU
CFU after 36 h [1, 9]: 18 ± 4 CFU
CFU after 36 h [1, 10]: 150 ± 4 CFU
Qualitative valuation of inhibition ([1]; 40 mg/mL): high
Inhibition factor [1, 11]: 50
CFU after 36 h [1, 12]: 0 CFU
CFU after 36 h [1, 13]: 0 CFU
CFU after 36 h [1, 14]: 20 ± 2 CFU
a) Evaluation of wound quality after 4 weeks (mini-pig dorsal wounds; 30 mg/mL): 3.8 ± 0.4
b) Evaluation of wound quality after 6 weeks (mini-pig dorsal wounds; 30 mg/mL): 4.5 ± 0.3
d) Histological evaluation of biopsies after 4 weeks (mini-pig dorsal wounds; 30 mg/mL): 2.3 ± 0.2
e) Histological evaluation of biopsies after 6 weeks (mini-pig dorsal wounds; 30 mg/mL): 2.7 ± 0.1
c) Histopathological evaluation after 6 weeks (mini-pig dorsal wounds; 30 mg/mL): 2.3 ± 0.1
a) Evaluation of wound quality after 4 weeks (mini-pig dorsal wounds; 60 mg/mL): 4.1 ± 0.3
b) Evaluation of wound quality after 6 weeks (mini-pig dorsal wounds; 60 mg/mL): 4.9 ± 0.1
d) Histological evaluation of biopsies after 4 weeks (mini-pig dorsal wounds; 60 mg/mL): 2.7 ± 0.1
e) Histological evaluation of biopsies after 6 weeks (mini-pig dorsal wounds; 60 mg/mL): 3.0 ± 0.2
c) Histopathological evaluation after 6 weeks (mini-pig dorsal wounds; 60 mg/mL): 3.0 ± 0.2

chondroitin sulphate [CS, reference compound]
CFU after 36 h [1, 2]: 8 ± 2 CFU
CFU after 36 h [1, 3]: 90 ± 7 CFU
CFU after 36 h [1, 4]: 960 ± 70 CFU
Inhibition factor ([1]; 400 μg/mL): 1.3
Qualitative valuation of inhibition ([1]; 400 μg/mL): mild
CFU after 36 h [1, 5]: 7 ± 1 CFU
CFU after 36 h [1, 6]: 80 ± 5 CFU
CFU after 36 h [1, 7]: 780 ± 70 CFU
Inhibition factor ([1]; 4 mg/mL): 2
Qualitative valuation of inhibition ([1]; 4 mg/mL): significant
CFU after 36 h [1, 8]: 5 ± 1 CFU
CFU after 36 h [1, 9]: 48 ± 4 CFU
CFU after 36 h [1, 10]: 520 ± 30 CFU
Qualitative valuation of inhibition ([1]; 40 mg/mL): high
Inhibition factor [1, 11]: 7.4
CFU after 36 h [1, 12]: 0 CFU
CFU after 36 h [1, 13]: 15 ± 2 CFU
CFU after 36 h [1, 14]: 120 ± 10 CFU
a) Evaluation of wound quality after 4 weeks (mini-pig dorsal wounds; 30 mg/mL): 2.6 ± 0.2
b) Evaluation of wound quality after 6 weeks (mini-pig dorsal wounds; 30 mg/mL): 3.4 ± 0.3
d) Histological evaluation of biopsies after 4 weeks (mini-pig dorsal wounds; 30 mg/mL): 1.3 ± 0.1
e) Histological evaluation of biopsies after 6 weeks (mini-pig dorsal wounds; 30 mg/mL): 1.7 ± 0.2
c) Histopathological evaluation after 6 weeks (mini-pig dorsal wounds; 30 mg/mL): 1.7 ± 0.2
a) Evaluation of wound quality after 4 weeks (mini-pig dorsal wounds; 60 mg/mL): 2.9 ± 0.2
b) Evaluation of wound quality after 6 weeks (mini-pig dorsal wounds; 60 mg/mL): 3.7 ± 0.3
d) Histological evaluation of biopsies after 4 weeks (mini-pig dorsal wounds; 60 mg/mL): 1.3 ± 0.1
e) Histological evaluation of biopsies after 6 weeks (mini-pig dorsal wounds; 60 mg/mL): 1.7 ± 0.1
c) Histopathological evaluation after 6 weeks (mini-pig dorsal wounds; 60 mg/mL): 2.3 ± 0.2
